Assay results as given in PubChem BioAssay AID488985 (Sanford-Burnham Center for Chemical Genomics, 2010).
Activity calls are given as the source filed them.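 Rule for the calls: active = mean EC50 below 10 µM; inactive = the rest.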

These molecules were tested against Apelin receptor (Homo sapiens) (UniProt P35414) (assay: APJ agonists, beta-arrestin recruitment, SAR follow-up, cell-based, luminescence, set 2 (AID 488985)). Details: CHO-K1 AGTRL-1 PathHunter beta-arrestin.
Apelin receptor (Homo sapiens), sequence (P35414 whole entry, looked up): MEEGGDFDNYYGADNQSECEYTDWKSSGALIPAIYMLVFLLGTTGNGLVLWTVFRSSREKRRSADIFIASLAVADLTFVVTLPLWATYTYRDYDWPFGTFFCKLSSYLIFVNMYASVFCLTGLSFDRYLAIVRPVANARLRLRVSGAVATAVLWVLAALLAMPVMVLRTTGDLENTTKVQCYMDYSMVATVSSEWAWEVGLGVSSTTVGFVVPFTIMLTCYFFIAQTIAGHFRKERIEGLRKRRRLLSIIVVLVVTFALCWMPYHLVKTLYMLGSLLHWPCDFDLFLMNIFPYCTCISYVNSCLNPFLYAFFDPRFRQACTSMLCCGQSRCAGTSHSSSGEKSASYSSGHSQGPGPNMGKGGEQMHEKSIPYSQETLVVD

Row | SMILES | EC50
1 | CC1=CC(=O)C=C/C1=N/OS(=O)(=O)c1ccc(C)cc1 | > 79 µM (inactive)
2 | CCN1C(c2ccccc2)=C(c2ccccc2)S/C1=C\C=C1/SC(=S)N(C)C1=O | 4.42 µM
3 | CCOc1cc2[nH]c(=S)n(CCN3CCCCC3CC)c(=O)c2cc1OCC (configuration not stated) | inactive
4 | CCCCN(C)CCn1c(=S)[nH]c2cc(OCC)c(OCC)cc2c1=O | inactive
5 | CC1=CC(=NOS(=O)(=O)c2ccccc2)C(C)=CC1=O | 6.07 µM
6 | CCOc1cc2[nH]c(=S)n(CCN3CCC(C)CC3)c(=O)c2cc1OCC | > 79 µM (inactive)
7 | CC(C)C1=CC(=NOS(=O)(=O)c2ccccc2)C=C(C(C)C)C1=O | 13.1 µM
8 | CCOc1ccc(S(=O)(=O)Nc2nc(-c3ccccc3)cs2)cc1 | > 79 µM (inactive)
9 | CCOc1cc2[nH]c(=S)n(CCCC(=O)NCc3ccccn3)c(=O)c2cc1OCC | inactive
10 | CCc1nnc(NC(=O)CSc2nc3cccnc3n2Cc2ccccc2)s1 | > 79 µM (inactive)
11 | CCc1nnc(NC(=O)CSc2nc3cccnc3n2C2CCCCC2)s1 | inactive
12 | CC1=CC(=O)C(C(C)(C)C)=C/C1=N/OS(=O)(=O)c1ccccc1 | 4.2 µM
13 | CCN1C(=O)/C(=C/C=C2/Sc3ccccc3N2CC)SC1=S | > 79 µM (inactive)
14 | Cc1cc(C)n2nc3nc(N4CCCCC4)nc(-c4ccccc4)c3c2n1 | > 79 µM (inactive)
15 | CC1=C/C(=N/OS(=O)(=O)c2ccccc2)C(C(C)C)=CC1=O | 11.9 µM
16 | CCN1C(=O)/C(=C/C=C2/SC(c3ccccc3)=C(c3ccccc3)N2CC)SC1=S | > 79 µM (inactive)
17 | Cc1cc(O)c(C2CCCCC2)cc1N=O | > 79 µM (inactive)
